Reference: article PMC5442262, “Catechol glucosides act as donor/acceptor substrates of glucansucrase enzymes of Lactobacillus reuteri” (Applied Microbiology and Biotechnology, 2017)

Legend:
Format in all cases: biochemical
Gtf180-ΔN [1] = molecular target: T1, Gtf180-ΔN (Limosilactobacillus reuteri, UniProt Q5SBN3); assay: MALDI-TOF-MS of products; conditions: 100 mM catG1, 24 h; 25 mM sodium acetate pH 4.7, 1 mM CaCl2, 37 °C; donor and acceptor
T1 construct: recombinant, N-terminally truncated (ΔN)

GtfML1-ΔN = molecular target: T2, GtfML1-ΔN (Limosilactobacillus reuteri, UniProt Q5SBN0); assay: MALDI-TOF-MS of products; conditions: 100 mM catG1, 24 h; 25 mM sodium acetate pH 4.7, 1 mM CaCl2, 37 °C; donor and acceptor
T2 construct: recombinant, N-terminally truncated (ΔN); also printed GtfMLI-ΔN

Gtf180-ΔN [2] = molecular target: T1, Gtf180-ΔN; assay: NP-HPLC of substrate decrease; 1H NMR of products; conditions: 100 mM cat^6G2; 25 mM sodium acetate pH 4.7, 1 mM CaCl2, 37 °C; donor and acceptor

T1 sequence (Q5SBN3 entry or part of it, stated change not applied): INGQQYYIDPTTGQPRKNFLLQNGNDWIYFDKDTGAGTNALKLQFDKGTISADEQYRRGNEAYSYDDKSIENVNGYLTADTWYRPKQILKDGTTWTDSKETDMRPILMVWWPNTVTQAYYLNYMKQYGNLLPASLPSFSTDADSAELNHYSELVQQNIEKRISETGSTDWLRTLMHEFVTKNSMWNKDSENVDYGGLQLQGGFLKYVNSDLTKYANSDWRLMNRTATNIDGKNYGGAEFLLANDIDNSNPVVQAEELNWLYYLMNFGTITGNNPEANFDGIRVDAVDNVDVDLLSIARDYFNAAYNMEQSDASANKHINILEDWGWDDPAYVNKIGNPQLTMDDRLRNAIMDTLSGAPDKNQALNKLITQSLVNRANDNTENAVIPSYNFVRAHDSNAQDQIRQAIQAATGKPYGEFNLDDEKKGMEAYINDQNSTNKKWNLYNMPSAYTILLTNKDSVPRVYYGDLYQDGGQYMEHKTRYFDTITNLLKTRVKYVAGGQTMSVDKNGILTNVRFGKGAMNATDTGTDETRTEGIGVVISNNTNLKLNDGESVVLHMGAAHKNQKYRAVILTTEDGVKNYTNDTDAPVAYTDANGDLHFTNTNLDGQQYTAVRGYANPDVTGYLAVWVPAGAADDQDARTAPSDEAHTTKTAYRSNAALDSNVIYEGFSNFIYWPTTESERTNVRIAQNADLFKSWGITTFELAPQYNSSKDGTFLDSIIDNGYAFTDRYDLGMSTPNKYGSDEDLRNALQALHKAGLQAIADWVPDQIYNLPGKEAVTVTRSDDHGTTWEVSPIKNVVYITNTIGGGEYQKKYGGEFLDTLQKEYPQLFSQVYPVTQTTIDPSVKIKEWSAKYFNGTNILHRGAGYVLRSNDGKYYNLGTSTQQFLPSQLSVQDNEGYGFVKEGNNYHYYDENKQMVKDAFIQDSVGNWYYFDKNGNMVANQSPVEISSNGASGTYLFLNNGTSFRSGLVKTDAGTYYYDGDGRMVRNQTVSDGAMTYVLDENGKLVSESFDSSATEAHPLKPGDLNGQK
T2 sequence (Q5SBN0 entry or part of it, stated change not applied): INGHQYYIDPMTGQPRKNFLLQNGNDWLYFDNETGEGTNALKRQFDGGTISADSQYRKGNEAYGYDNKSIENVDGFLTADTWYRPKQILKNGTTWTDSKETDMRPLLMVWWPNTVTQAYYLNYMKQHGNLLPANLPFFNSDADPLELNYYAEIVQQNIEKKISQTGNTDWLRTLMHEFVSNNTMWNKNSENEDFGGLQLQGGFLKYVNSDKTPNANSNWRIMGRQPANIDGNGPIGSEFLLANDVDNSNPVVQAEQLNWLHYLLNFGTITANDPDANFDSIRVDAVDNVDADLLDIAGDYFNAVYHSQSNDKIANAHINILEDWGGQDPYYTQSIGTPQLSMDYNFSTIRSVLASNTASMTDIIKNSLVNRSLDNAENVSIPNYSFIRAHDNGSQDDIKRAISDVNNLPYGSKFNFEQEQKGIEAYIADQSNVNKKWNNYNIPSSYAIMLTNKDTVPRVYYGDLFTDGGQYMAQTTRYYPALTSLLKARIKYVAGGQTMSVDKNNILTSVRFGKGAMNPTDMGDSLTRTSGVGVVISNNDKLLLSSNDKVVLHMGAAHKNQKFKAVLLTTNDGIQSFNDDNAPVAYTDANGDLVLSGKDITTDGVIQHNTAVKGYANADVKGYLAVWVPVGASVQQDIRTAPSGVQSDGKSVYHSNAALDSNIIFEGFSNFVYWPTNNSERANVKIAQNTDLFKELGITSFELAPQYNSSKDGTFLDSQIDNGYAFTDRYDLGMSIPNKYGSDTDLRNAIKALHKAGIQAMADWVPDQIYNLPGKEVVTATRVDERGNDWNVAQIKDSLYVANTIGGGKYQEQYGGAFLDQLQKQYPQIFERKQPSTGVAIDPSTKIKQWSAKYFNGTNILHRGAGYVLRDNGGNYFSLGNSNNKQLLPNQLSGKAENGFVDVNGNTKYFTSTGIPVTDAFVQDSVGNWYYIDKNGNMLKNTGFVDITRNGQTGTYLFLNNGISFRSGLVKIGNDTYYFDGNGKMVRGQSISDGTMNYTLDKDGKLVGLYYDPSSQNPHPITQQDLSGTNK

Compound | MALDI-TOF-MS of products (Gtf180-ΔN [1]) | MALDI-TOF-MS of products (GtfML1-ΔN) | NP-HPLC of substrate decrease; 1H NMR of products (Gtf180-ΔN [2])
OC[C@H]1O[C@H](Oc2ccccc2O)[C@H](O)[C@@H](O)[C@@H]1O [catG1] | Gtf180-ΔN and GtfMLI-ΔN glucansucrase enzymes also were able to use catG1 as glucosyl donor | Gtf180-ΔN and GtfMLI-ΔN glucansucrase enzymes also were able to use catG1 as glucosyl donor | 
OC[C@H]1O[C@H](OC[C@H]2O[C@H](Oc3ccccc3O)[C@H](O)[C@@H](O)[C@@H]2O)[C@H](O)[C@@H](O)[C@@H]1O [cat^6G2] |  |  | Gtf180-ΔN used both cat^3G2 and cat^6G2 as donor/acceptor substrates
